Laboratory results reported in patent US8410168B2, “Methods and compositions for treating ophthalmic conditions with retinyl derivatives” (Acucela, Inc., priority 2004, dated 2013).

Columns and labels:
CRALBP [1] = biological target: T1, CRALBP (Homo sapiens, UniProt P12271); assay: Size exclusion chromatography study of binding to CRALBP; settings: 4 μM apo-CRALBP, 8 μM ligand
T1 construct: made in house
Method: Apo-CRALBP at 4 μM was incubated with 8 μM of 11cRAL, atRAL or HPR in PBS at room temperature for 1 hour. In control experiment, equivalent volume of DMSO was added to the CRALBP solution. 50 μl of each sample mixture was analyzed by BioRad Bio-Sil SEC125 Gel Filtration Column (300×7.8 mm).

CRALBP [2] = biological target: T1, CRALBP; assay: Fluorescence quenching study of binding to CRALBP
Method: Apo-CRALBP at 0.5 μM was incubated with 1 μM of 11-cis Retinal (11cRAL), all-trans retinal (atRAL) or N-4-hydroxyphenyl retinamide (HPR) in PBS at room temperature for 1 hour. As a control, same volume of DMSO was added to the Apo-CRABLP solution. The emission spectra were measured between 290 nm to 500 nm with excitation wavelength at 280 nm and 2 nm bandpass (See FIG. 7).
Quenching of CRALBP protein fluorescence with 11-cis retinal (11cRAL). The fluorescence emission of recombinant apo-CRALBP (0.5 μM) was measured using 280 nm excitation (“no 11cRAL”).
Quenching of CRALBP protein fluorescence with HPR. The data shown were obtained using an experimental design identical to that described above. The fluorescence emission of recombinant apo-CRALBP was measured using 280 nm excitation (“no HPR”).
We performed an analysis of the dissociation constant (KD) for 11cRAL and HPR binding to apo-CRALBP (see FIG. 15). […] This calculation is based upon the ligand concentration necessary to fully quench the protein fluorescence. The data reveal that both 11cRAL and HPR quench apo-CRALBP fluorescence maximally at ˜1.5 μM. Thus, although apo-CRALBP is described as an 11 cis-specific retinoid binding protein, it appears to bind HPR as well.

apo-CRALBP = biological target: T2, apo-CRALBP (Homo sapiens, UniProt P12271); assay: Ni+ affinity column and spectroscopic analysis of binding to CRALBP; settings: 10 μM apo-CRALBP, 20 μM ligand
T2 construct: made in house
Method: In order to confirm data obtained during fluorescence analysis of HPR binding to CRALBP, a second analysis was performed using affinity chromatography and spectroscopic analysis. The recombinant apo-CRALBP was constructed with a histidine tag which is utilized to purify the protein on a Ni+ affinity column following expression cloning. Here, we utilized this feature of apo-CRALBP to specifically “trap” the protein and any protein-ligand species for spectroscopic analysis. Two binding mixtures were prepared containing apo-CRALBP (10 μM) and either 11cRAL (20 μM) or HPR (20 μM). In control experiments for the analysis of non-specific ligand binding onto the affinity matrix, we prepared two additional mixtures containing only 11cRAL (20 μM) or HPR (20 μM) in binding buffer. The binding mixtures were passed through separate Ni+ affinity columns and the columns were washed extensively to elute unbound protein and ligand. Following the addition of elution buffer, the eluted fractions were analyzed by spectroscopy. […] Instead, two absorption maxima are seen: one at 280 nm and a second at 360 nm, which is attributable to the absorption of HPR (see FIG. 14).

TTR binding to RBP = TTR binding to RBP (Homo sapiens, UniProt P02753); assay: Size exclusion study of TTR binding to RBP; settings: 10 μM RBP, 50 μM MPR, 10 μM TTR
Method: Apo-RBP at 10 μM was incubated with 50 μM of MPR in PBS at room temperature for 1 hour. 10 μM of TTR was then added to the solution, and the mixture was incubated for another hour at room temperature. […] of the sample mixtures with and without TTR addition were analyzed by BioRad Bio-Sil SEC 125 Gel Filtration Column (300×7.8 mm). In control experiments, atROL-RBP and atROL-RBP-TTR mixture were analyzed in the same manner.

ABCA4−/− mice = assay: HPR drug holiday after 28 days of treatment; assay type: in vivo, mouse; settings: 28-day drug holiday
Method: HPR (10 mg/kg in DMSO) was administered to ABCA4−/− mice daily for a period of 28 days. Control ABCA4−/− mice received only DMSO for the same period. […] Importantly, the observed reductions in lipofuscin autofluorescence persist long after cessation of HPR therapy. HPR (10 mg/kg), or DMSO, administration was discontinued following 28 days of treatment and re-evaluated A2E and precursor levels after 2 weeks and after 4 weeks.
We examined eyecup extracts by HPLC and employed detection by absorbance and fluorimetry. Identity of the indicated peaks was confirmed by on-line spectral analysis and by co-elution with authentic standards. […] Further, the A2E and precursor (A2PE-H2 and A2PE) levels after a […] or 28-day drug holiday remained at or near the levels immediately following 28 days of treatment (i.e., ca. 50% reduction relative to control), although after the 28-day drug holiday, the amount of A2E and precursor (A2PE-H2 and A2PE) had increased by a few percentage points relative to the 12-day drug holiday levels. […] It is clear that peak fluorescence tracks with the abundance of A2E, A2PE and A2PE-H2.
This effect cannot be attributed to long-term reductions in serum retinol as serum retinol had returned to baseline 48 hours following the last HPR dose. […] Furthermore, HPR reduces serum retinol levels, which leads to a reduction in the level of retinol in the eyes of treated animals. Once the level of retinol has been reduced in the eye, there is a time lag in the subsequent increase in retinol levels in the eye. Alone or in combination, the production of A2E, A2PE and A2PE-H2 in the eye remains low despite the absence of HPR in the serum or the eye.

RBP = RBP (Homo sapiens, UniProt P02753); assay: Fluorescence quenching study of MPR binding to RBP
Method: Apo-RBP at 0.5 μM was incubated with 0, 0.25, 0.5, 1 and 2 μM of MPR in PBS at room temperature for 1 hour, respectively. As controls, the same concentration of Apo-RBP was also incubated with 1 μM of HPR or 1 μM of atROL. All mixtures contained 0.2% Ethanol (v/v). The emission spectra were measured between 290 nm to 550 nm with excitation wavelength at 280 nm and 3 nm bandpass.

T1 sequence (P12271 whole entry, species assumed): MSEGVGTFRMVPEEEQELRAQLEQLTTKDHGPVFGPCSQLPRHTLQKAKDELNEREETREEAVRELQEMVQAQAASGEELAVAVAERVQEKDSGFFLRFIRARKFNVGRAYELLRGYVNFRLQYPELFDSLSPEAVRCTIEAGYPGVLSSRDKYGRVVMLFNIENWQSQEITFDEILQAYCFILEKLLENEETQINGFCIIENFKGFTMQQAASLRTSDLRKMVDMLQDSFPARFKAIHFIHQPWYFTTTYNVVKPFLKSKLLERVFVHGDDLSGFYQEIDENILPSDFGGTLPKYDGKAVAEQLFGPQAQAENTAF
T2 sequence (P12271 whole entry, species assumed): as above

Structure (SMILES): CC1=C(/C=C/C(C)=C/C=C/C(C)=C/C=O)C(C)(C)CCC1 [11cRAL, 11-cis retinal]
- ligand bound to CRALBP (monomer elution peak absorbance) (CRALBP [1]): a majority of the CRALBP is bound with ligand
- concentration of maximal quenching of apo-CRALBP fluorescence (CRALBP [2]): ~1.5 µM
- quenching of CRALBP fluorescence emission (CRALBP [2]; 0.5 μM apo-CRALBP, 1 μM ligand, 1 hour, vs DMSO): highest degree of quenching
- concentration dependence of CRALBP protein fluorescence quenching (CRALBP [2]; 0.5 μM recombinant apo-CRALBP, 280 nm excitation): concentration dependent manner
- Kd (CRALBP [2]; transformation of fluorescence quenching data, read-out: dissociation constant (KD) for binding to apo-CRALBP): ~30 nM
- binding to apo-CRALBP by absorption spectra of eluted fraction (apo-CRALBP): bound to CRALBP

Structure (SMILES): CC1=C(/C=C/C(C)=C/C=C/C(C)=C/C=O)C(C)(C)CCC1 [atRAL, all-trans retinal]
- ligand bound to CRALBP (monomer elution peak absorbance) (CRALBP [1]): Less than half of the atRAL is bound to CRALBP

Structure (SMILES): COc1ccc(NC(=O)\C=C(C)/C=C/C=C(C)\C=C\C2=C(C)CCCC2(C)C)cc1 (stereo in doubt) [MPR, N-(4-methoxyphenyl)retinamide]
- binding of ligand-RBP to TTR (TTR binding to RBP): did not bind to TTR
- detection in the eyes after drug holiday (ABCA4−/− mice): unable to detect
- quenching of RBP fluorescence (RBP; 0.5 μM apo-RBP, 0-2 μM MPR): concentration-dependent quenching
- concentration at which quenching of RBP fluorescence saturated (RBP; 0.5 μM of RBP): 1 µM
- degree of RBP fluorescence quenching compared with other ligands (RBP; 1 μM controls): smaller than those by atROL and HPR

Structure (SMILES): CC1=C(/C=C/C(C)=C/C=C/C(C)=C/CO)C(C)(C)CCC1 [atROL, all-trans retinol]
- binding of ligand-RBP to TTR (TTR binding to RBP): binds to TTR
